The values below come from US20260166128A1, “HUMAN AMYLIN ANALOG, AND DERIVATIVE THEREOF AND USE THEREOF” (priority 2022, published 2026).

A short description of series [1]: Freeze-thaw stability of derivatives (freeze-thaw yield by liquid chromatography). Format: physicochemical. The settings on record: for Dissolution property: appearance after dissolution at 0.2 mg/ml in 20 mM phosphate buffer solution (PB) (pH 7.0); for Freeze storage property: appearance after overnight storage at −20° C. and thawing to room temperature, 0.2 mg/ml in 20 mM PB (pH 7.0); for Freeze storage yield: concentration of polypeptide after freezing and thawing / concentration before, by liquid chromatography, −20° C. overnight. The method in brief:
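Freeze-thaw yield is the ratio of peptide concentration after versus before one overnight −20° C freeze and room-temperature thaw, both quantified by RP-HPLC of supernatant after centrifugation. Samples were 0.2 mg/ml freeze-dried derivative in 20 mM PB, pH 7.0.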

In another series the target is T1, human amylin receptor (Homo sapiens, UniProt O60896+P30988).
T1 construct: host or cells: CHO-K1/Ga15/AMY3 cells, further stably transfected with a CRE-luciferase plasmid
T1 sequence (P30988 25-474): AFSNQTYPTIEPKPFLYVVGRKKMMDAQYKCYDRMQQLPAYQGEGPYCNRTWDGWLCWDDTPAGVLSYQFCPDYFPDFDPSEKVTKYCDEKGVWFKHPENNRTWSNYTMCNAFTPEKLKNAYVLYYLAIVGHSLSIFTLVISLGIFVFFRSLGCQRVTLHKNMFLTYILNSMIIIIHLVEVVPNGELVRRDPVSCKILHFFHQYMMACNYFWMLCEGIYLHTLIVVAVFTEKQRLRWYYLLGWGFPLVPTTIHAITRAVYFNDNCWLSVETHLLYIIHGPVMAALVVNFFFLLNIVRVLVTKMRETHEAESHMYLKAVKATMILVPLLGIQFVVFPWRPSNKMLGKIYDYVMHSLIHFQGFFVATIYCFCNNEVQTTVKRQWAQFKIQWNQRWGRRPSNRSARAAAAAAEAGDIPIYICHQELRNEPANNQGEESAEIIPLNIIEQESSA
T1 sequence (O60896 24-148 partner): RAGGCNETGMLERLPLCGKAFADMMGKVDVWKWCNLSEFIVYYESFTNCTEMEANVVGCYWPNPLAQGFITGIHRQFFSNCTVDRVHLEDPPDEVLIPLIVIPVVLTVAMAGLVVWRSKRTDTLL
The series is described as follows: Luciferase assay of amylin derivatives in amylin receptor/CRE-luc CHO cell line. Format: cell-based. Conditions: CHO-K1/Ga15/AMY3 CRE-luc cells, 24 hours incubation, F12 medium containing 10% FBS; read-out: EC50.

The structures appear in SMILES notation. pEC50: −log10 of the molar value. Numbered stars: 1 amine (or outer) side, 2 acyl side, 3 side chain; on linkers, the order of the positions; unused ones are H or OH. Bridge positions count the residues as written; N and C are the ends. Square brackets hold non-standard residues; d marks the D form. Side chains are listed from the residue outwards. Peptide text beside a SMILES is read from it. * marks the point of attachment. C20 diacid = O=C(O)CCCCCCCCCCCCCCCCCCC(=O)*; C18 diacid = O=C(O)CCCCCCCCCCCCCCCCC(=O)*; γGlu = O=C(O)[C@H](CCC(=O)[*:2])N[*:1]; Hyp = O=C(O)[C@@H]1C[C@@H](O)CN1; AEEA = NCCOCCOCC(=O)O

Method for human amylin receptor: The experiment was intended to detect the activity or efficacy of the amylin derivatives on a human amylin receptor in vitro by luciferase assay.
50 μL of growth medium (F12 medium containing 10% FBS) was added into each well of a white 96-well plate, and the stably transfected amylin/CRE-lue CHO cells were inoculated into the white 96-well plate at a density of about 20,000 cells/well for activity determination.

As a reminder, the pEC50 is the negative decadic logarithm of the EC50, by convention in mol/L. On to `CC[C@H](C)[C@H](NC(=O)[C@@H]1CCCN1C(=O)CNC(=O)[C@H](CC(C)C)NC(=O)[C@H](CC(N)=O)NC(=O)[C@H](CCCCNC(=O)COCCOCCNC(=O)CC[C@H](NC(=O)CCCCCCCCCCCCCCCCCCC(=O)O)C(=O)O)NC(=O)[C@H](CO)NC(=O)[C@H](CO)NC(=O)[C@H](Cc1c[nH]cn1)NC(=O)[C@H](CCCNC(=N)N)NC(=O)[C@H](CC(C)C)NC(=O)[C@H](Cc1ccccc1)NC(=O)[C@H](CC(=O)O)NC(=O)[C@H](C)NC(=O)[C@H](CC(C)C)NC(=O)[C@H](CCCNC(=N)N)NC(=O)[C@H](CCC(N)=O)NC(=O)[C@@H](NC(=O)[C@H](C)NC(=O)[C@@H]1CSSC[C@H](NC(=O)[C@@H](N)CCCNC(=N)N)C(=O)N[C@@H](CC(N)=O)C(=O)N[C@@H]([C@@H](C)O)C(=O)N[C@@H](C)C(=O)N[C@@H]([C@@H](C)O)C(=O)N1)[C@@H](C)O)C(=O)N[C@@H](CC(C)C)C(=O)N1CCC[C@H]1C(=O)N1CCC[C@H]1C(=O)N[C@H](C(=O)N[C@@H](CC(N)=O)C(=O)N[C@H](C(=O)NCC(=O)N[C@@H](CO)C(=O)N[C@@H](CC(N)=O)C(=O)N[C@H](C(=O)N1C[C@H](O)C[C@H]1C(N)=O)[C@@H](C)O)C(C)C)[C@@H](C)O` [PD114] (H-RCNTATCATQRLADFLRHSSK([AEEA-γGlu-C20 diacid])NLGPILPPTNVGSNT[Hyp]-NH2; disulfide 2-7 (inferred); N-terminus assumed), for which, in series [1], the Dissolution property result was “Clear”, the Freeze storage property entry is “Clear” and the Freeze storage yield stood at 101.02%. Moreover, the pEC50 at human amylin receptor was 10.54.
On to `CC[C@H](C)[C@H](NC(=O)[C@@H]1CCCN1C(=O)CNC(=O)[C@H](CC(C)C)NC(=O)[C@H](CC(N)=O)NC(=O)[C@H](CC(N)=O)NC(=O)[C@H](CO)NC(=O)[C@H](CO)NC(=O)[C@H](Cc1c[nH]cn1)NC(=O)[C@H](CCCNC(=N)N)NC(=O)[C@H](CC(C)C)NC(=O)[C@H](Cc1ccccc1)NC(=O)[C@H](CC(=O)O)NC(=O)[C@H](C)NC(=O)[C@H](CC(C)C)NC(=O)[C@H](CCCNC(=N)N)NC(=O)[C@H](CCC(N)=O)NC(=O)[C@@H](NC(=O)[C@H](C)NC(=O)[C@@H]1CSSC[C@H](NC(=O)[C@H](CCCCN)NC(=O)COCCOCCNC(=O)COCCOCCNC(=O)CC[C@H](NC(=O)CCCCCCCCCCCCCCCCC(=O)O)C(=O)O)C(=O)N[C@@H](CC(N)=O)C(=O)N[C@@H]([C@@H](C)O)C(=O)N[C@@H](C)C(=O)N[C@@H]([C@@H](C)O)C(=O)N1)[C@@H](C)O)C(=O)N[C@@H](CC(C)C)C(=O)N1CCC[C@H]1C(=O)N1CCC[C@H]1C(=O)N[C@H](C(=O)N[C@@H](CC(N)=O)C(=O)N[C@H](C(=O)NCC(=O)N[C@@H](CO)C(=O)N[C@@H](CC(N)=O)C(=O)N[C@H](C(=O)N1C[C@H](O)C[C@H]1C(N)=O)[C@@H](C)O)C(C)C)[C@@H](C)O` [PD126] ({C18 diacid-γGlu-AEEA-AEEA}-KCNTATCATQRLADFLRHSSNNLGPILPPTNVGSNT[Hyp]-NH2; disulfide 2-7 (inferred)), for which, in series [1], the Dissolution property result is given as “Clear”, the Freeze storage property entry is given as “Clear” and the Freeze storage yield was 99.24%. Also, the pEC50 on human amylin receptor was 10.55.
